Experimental data from patent US20080234262A1 (Wyeth, priority 2007, published 2008).

Legend:
prostate line LNCap = assay: In vitro cell culture growth assay (MTS), LNCap; format: cell-based, human; conditions: LNCap cells, three days after drug treatment
breast line MDA468 = assay: In vitro cell culture growth assay (MTS), MDA468; format: cell-based, human; conditions: MDA468 cells, three days after drug treatment
Experimental: Human tumor cell lines used include prostate lines LNCap and PC3MM2, breast lines MDA468, MCF7, renal line HTB44 (A498), colon line HCT116, and ovarian line OVCAR3. Cells were plated in 96-well culture plates. One day following plating, the inhibitors were added to cells. Three days after drug treatment, viable cell densities were determined by metabolic conversion (by viable cells) of the dye MTS, a well established cell proliferation assay. The assays were performed using an assay kit purchased from Promega Corp. (Madison, Wis.) following the protocol supplied with the kit. The MTS assay results were read in a 96-well plate reader by measuring absorbance at 490 nm. The effect of each treatment was calculated as percent of control growth relative to the vehicle-treated cells grown in the same culture plate.

PI3K = PI3K (Homo sapiens, UniProt P42336); assay: Fluorescence polarization assay for PI3K; format: biochemical; conditions: PI3Kα; read-out: PI3Kα IC50;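 also: PI3K kinase reaction on PIP2 with ATP, 30-60 min, product sensed by GST-GRP with red probe in fluorescence polarization (mP), controls without enzyme and at zero time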
Sequence of PI3K (P42336 whole entry): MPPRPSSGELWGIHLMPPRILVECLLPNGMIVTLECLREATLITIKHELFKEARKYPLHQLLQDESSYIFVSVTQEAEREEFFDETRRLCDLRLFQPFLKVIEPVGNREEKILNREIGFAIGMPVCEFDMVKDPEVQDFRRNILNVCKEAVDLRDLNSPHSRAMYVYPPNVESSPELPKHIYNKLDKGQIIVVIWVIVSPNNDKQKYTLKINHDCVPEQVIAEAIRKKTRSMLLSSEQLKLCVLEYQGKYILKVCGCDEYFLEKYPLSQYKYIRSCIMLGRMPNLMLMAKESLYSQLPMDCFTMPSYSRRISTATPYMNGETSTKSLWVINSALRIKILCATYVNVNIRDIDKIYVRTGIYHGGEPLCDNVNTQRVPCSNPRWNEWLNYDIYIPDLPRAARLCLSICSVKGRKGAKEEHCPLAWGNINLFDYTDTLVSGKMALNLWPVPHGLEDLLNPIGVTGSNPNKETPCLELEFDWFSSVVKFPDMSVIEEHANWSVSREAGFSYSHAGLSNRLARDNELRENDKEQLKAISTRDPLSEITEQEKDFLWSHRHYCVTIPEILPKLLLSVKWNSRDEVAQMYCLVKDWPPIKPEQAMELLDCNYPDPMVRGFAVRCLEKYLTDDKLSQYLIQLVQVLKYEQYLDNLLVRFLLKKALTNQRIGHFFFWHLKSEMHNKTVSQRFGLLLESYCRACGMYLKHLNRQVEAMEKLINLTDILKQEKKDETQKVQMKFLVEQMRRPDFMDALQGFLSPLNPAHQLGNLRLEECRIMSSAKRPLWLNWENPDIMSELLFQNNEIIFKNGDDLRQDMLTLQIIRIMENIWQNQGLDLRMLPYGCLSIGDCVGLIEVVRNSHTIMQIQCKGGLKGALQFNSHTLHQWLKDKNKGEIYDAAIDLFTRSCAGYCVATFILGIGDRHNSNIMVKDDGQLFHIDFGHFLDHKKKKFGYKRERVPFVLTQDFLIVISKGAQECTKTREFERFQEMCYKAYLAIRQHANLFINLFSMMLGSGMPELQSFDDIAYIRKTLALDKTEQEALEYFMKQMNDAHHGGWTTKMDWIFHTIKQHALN
Sequence of PI3K (P27986 whole entry partner): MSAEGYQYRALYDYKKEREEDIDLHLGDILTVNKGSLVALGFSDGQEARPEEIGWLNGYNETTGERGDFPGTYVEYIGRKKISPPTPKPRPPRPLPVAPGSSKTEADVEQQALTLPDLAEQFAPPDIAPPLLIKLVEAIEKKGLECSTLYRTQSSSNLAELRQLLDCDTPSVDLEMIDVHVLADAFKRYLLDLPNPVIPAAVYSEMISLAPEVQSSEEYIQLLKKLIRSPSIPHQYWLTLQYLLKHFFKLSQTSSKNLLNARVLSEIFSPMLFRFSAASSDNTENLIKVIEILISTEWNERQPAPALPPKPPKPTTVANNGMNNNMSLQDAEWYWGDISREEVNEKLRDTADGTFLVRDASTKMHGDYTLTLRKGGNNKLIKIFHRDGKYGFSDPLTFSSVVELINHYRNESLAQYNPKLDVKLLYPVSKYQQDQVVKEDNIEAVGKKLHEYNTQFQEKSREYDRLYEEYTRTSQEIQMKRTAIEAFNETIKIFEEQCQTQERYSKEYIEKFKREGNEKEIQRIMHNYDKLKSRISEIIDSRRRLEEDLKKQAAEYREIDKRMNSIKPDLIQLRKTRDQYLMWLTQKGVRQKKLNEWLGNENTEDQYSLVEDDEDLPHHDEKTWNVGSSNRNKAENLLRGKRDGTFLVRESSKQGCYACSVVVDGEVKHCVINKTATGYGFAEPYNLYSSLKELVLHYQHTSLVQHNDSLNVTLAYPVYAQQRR

| Compound | IC50 (prostate line LNCap; Homo sapiens, LNCaP, 72 h) [nM] | IC50 (breast line MDA468; Homo sapiens, 72 h) [nM] | IC50 (prostate line LNCap) [nM] | IC50 (breast line MDA468) [nM] | IC50 (PI3K) [nM] |
| --- | --- | --- | --- | --- | --- |
| c1ccc(-n2ncc3c(N4CCOCC4)nc(-c4csc5ccccc45)nc32)cc1 [Compound 7] | 20000 | 38000 |  |  |  |
| Oc1cccc(-c2nc(N3CCOCC3)c3cnn(C4CCN(Cc5ccccc5)CC4)c3n2)c1 [Compound 8] | 220 | 1900 |  |  |  |
| O=C(c1cccnc1)N1CCC(n2ncc3c(N4CCOCC4)nc(-c4cccc(O)c4)nc32)CC1 [Compound 24, 3-{4-morpholin-4-yl-1-[1-(pyridin-3-ylcarbonyl)piperidin-4-yl]-1H-pyrazolo[3,4-d]pyrimidin-6-yl}phenol] | 200 | 700 |  |  |  |
| O=C(c1ccccc1)N1CCC(n2ncc3c(N4CCOCC4)nc(-c4cccc(O)c4)nc32)CC1 [Compound 25, 3-[1-(1-benzoylpiperidin-4-yl)-4-morpholin-4-yl-1H-pyrazolo[3,4-d]pyrimidin-6-yl]phenol] | 140 | 700 |  |  |  |
| O=C(c1cccnc1)N1CCC(n2ncc3c(N4CCOCC4)nc(-c4ccc5[nH]ccc5c4)nc32)CC1 [Compound 38, 6-(1H-indol-5-yl)-4-morpholin-4-yl-1-[1-(pyridin-3-ylcarbonyl)piperidin-4-yl]-1H-pyrazolo[3,4-d]pyrimidine] | 380 | 1100 |  |  |  |
| CC(=O)Nc1cccc(-c2nc(N3CCOCC3)c3cnn(C4CCN(Cc5ccccc5)CC4)c3n2)c1 [Compound 78] | 8000 | 12000 |  |  |  |
| Nc1ccc(-c2nc(N3CCOCC3)c3cnn(C4CCN(Cc5ccccc5)CC4)c3n2)cc1 [Compound 79] | 4500 | 10000 |  |  |  |
| Nc1ccc(-c2nc(N3CCOCC3)c3cnn(-c4ccccc4)c3n2)cc1 [Compound 106, 4-(4-morpholin-4-yl-1-phenyl-1H-pyrazolo[3,4-d]pyrimidin-6-yl)aniline4-(4-morpholin-4-yl-1-phenyl-1H-pyrazolo[3,4-d]pyrimidin-6-yl)aniline] | 3000 | 11000 |  |  |  |
| Nc1cccc(-c2nc(N3CCOCC3)c3cnn(-c4ccccc4)c3n2)c1 [Compound 107] | 3500 | 10000 |  |  |  |
| CC(=O)Nc1ccc(-c2nc(N3CCOCC3)c3cnn(-c4ccccc4)c3n2)cc1 [Compound 108, N-[4-(4-morpholin-4-yl-1-phenyl-1H-pyrazolo[3,4-d]pyrimidin-6-yl)phenyl]acetamide] | 60000 | 60000 |  |  |  |
| c1ccc(-n2ncc3c(N4CCOCC4)nc(-c4ccc5[nH]ccc5c4)nc32)cc1 [Compound 110] | 2000 | 5500 |  |  |  |
| NCCC(=O)Nc1ccc(-c2nc(N3CCOCC3)c3cnn(-c4ccccc4)c3n2)cc1 [Compound 134] | 1200 | 1300 |  |  |  |
| CN(C)CC(=O)Nc1ccc(-c2nc(N3CCOCC3)c3cnn(-c4ccccc4)c3n2)cc1 [Compound 135] | 3400 | 1200 |  |  |  |
| NCC(=O)Nc1ccc(-c2nc(N3CCOCC3)c3cnn(-c4ccccc4)c3n2)cc1 [Compound 136] | 1000 | 400 |  |  |  |
| COCCC(=O)Nc1ccc(-c2nc(N3CCOCC3)c3cnn(-c4ccccc4)c3n2)cc1 [Compound 138] | 4900 | 6500 |  |  |  |
| CN1CCC(C(=O)Nc2ccc(-c3nc(N4CCOCC4)c4cnn(-c5ccccc5)c4n3)cc2)CC1 [Compound 141] | 3000 | 3800 |  |  |  |
| CC(=O)N(C)c1ccc(-c2nc(N3CCOCC3)c3cnn(-c4ccccc4)c3n2)cc1 [Compound 149, N-methyl-N-[4-(4-morpholin-4-yl-1-phenyl-1H-pyrazolo[3,4-d]pyrimidin-6-yl)phenyl]acetamide] | 4500 | 40000 |  |  |  |
| Nc1ccc(-c2nc(N3CCOCC3)c3cnn(C4CCN(Cc5ccccc5)CC4)c3n2)cn1 [Compound 155] | 100 | 1000 |  |  |  |
| c1cc2cc(-c3nc(N4CCOCC4)c4cnn([C@@H]5CCCNC5)c4n3)ccc2[nH]1 [Compound 168] | 3400 | 10000 |  |  |  |

| Compound | IC50 (prostate line LNCap; Homo sapiens, LNCaP, 72 h) [nM] | IC50 (breast line MDA468; Homo sapiens, 72 h) [nM] | IC50 (prostate line LNCap) [nM] | IC50 (breast line MDA468) [nM] | IC50 (PI3K) [nM] |
| --- | --- | --- | --- | --- | --- |
| c1cc2cc(-c3nc(N4CCOCC4)c4cnn([C@H]5CCCNC5)c4n3)ccc2[nH]1 [Compound 170, 6-(1H-indol-5-yl)-4-morpholin-4-yl-1-[(3S)-piperidin-3-yl]-1H-pyrazolo[3,4-d]pyrimidine] | 3300 | 12000 |  |  |  |
| Nc1ncc(-c2nc(N3CCOCC3)c3cnn(C4CCN(Cc5ccccc5)CC4)c3n2)cn1 [Compound 191] | 80 | 400 |  |  |  |
| Oc1ccc(-c2nc(N3CCOCC3)c3cnn(C4CCN(Cc5ccccc5)CC4)c3n2)cn1 [Compound 192] | 16000 | 40000 |  |  |  |
| O=CNc1ccc(-c2nc(N3CCOCC3)c3cnn(C4CCN(Cc5ccccc5)CC4)c3n2)cc1 [Compound 231, N-{4-[1-(1-benzylpiperidin-4-yl)-4-morpholin-4-yl-1H-pyrazolo[3,4-d]pyrimidin-6-yl]phenyl}formamide] | 1400 | 4500 |  |  |  |
| Oc1ccc(-c2nc(N3CCOCC3)c3cnn(C4CCN(Cc5ccccc5)CC4)c3n2)cc1 [Compound 232, 4-[1-(1-benzylpiperidin-4-yl)-4-morpholin-4-yl-1H-pyrazolo[3,4-d]pyrimidin-6-yl]phenol] | 1400 | 4000 |  |  |  |
| Nc1ccc(-c2nc(N3CCOCC3)c3cnn(-c4ccccc4)c3n2)nc1 [Compound 438, 6-(4-morpholin-4-yl-1-phenyl-1H-pyrazolo[3,4-d]pyrimidin-6-yl)pyridin-3-amine] | 7000 | 60000 |  |  |  |
| Nc1cccc(-c2nc(N3CCOCC3)c3cnn(-c4ccccc4)c3n2)n1 [Compound 439, 6-(4-morpholin-4-yl-1-phenyl-1H-pyrazolo[3,4-d]pyrimidin-6-yl)pyridin-2-amine] | 60000 | 60000 |  |  |  |
| O=CNc1ccc(-c2nc(N3CCOCC3)c3cnn(C4CCN(Cc5ccccc5)CC4)c3n2)cc1 [Compound 485, N-{4-[1-(1-benzylpiperidin-4-yl)-4-morpholin-4-yl-1H-pyrazolo[3,4-d]pyrimidin-6-yl]phenyl}formamide] | 1400 | 4500 |  |  |  |
| Oc1ccc(-c2nc(N3CCOCC3)c3cnn(C4CCN(Cc5ccccc5)CC4)c3n2)cc1 [Compound 486, 4-[1-(1-benzylpiperidin-4-yl)-4-morpholin-4-yl-1H-pyrazolo[3,4-d]pyrimidin-6-yl]phenol] | 1400 | 4000 |  |  |  |
| CNC(=S)Nc1ccc(-c2nc(N3CCOCC3)c3cnn(C4CCN(Cc5cccnc5)CC4)c3n2)cc1 [Compound 622, 1-methyl-3-(4-{4-morpholin-4-yl-1-[1-(pyridin-3-ylmethyl)piperidin-4-yl]-1H-pyrazolo[3,4-d]pyrimidin-6-yl}phenyl)thiourea] | 70 | 500 |  |  |  |
| Nc1cccc(-c2nc(N3CCOCC3)c3cnn(-c4ccccc4)c3n2)n1 [Compound 683, 6-(4-morpholin-4-yl-1-phenyl-1H-pyrazolo[3,4-d]pyrimidin-6-yl)pyridin-2-amine] |  |  | > 60000 | > 60000 |  |
| COC(=O)N1CCC(n2ncc3c(N4CCOCC4)nc(-c4ccc(NC(=O)Nc5ccncc5)cc4)nc32)CC1 [Compound 738, methyl 4-(4-morpholin-4-yl-6-{4-[(pyridin-4-ylcarbamoyl)amino]phenyl}-1H-pyrazolo[3,4-d]pyrimidin-1-yl)piperidine-1-carboxylate] | < 27 | < 27 |  |  |  |
| COC(=O)Nc1ccc(-c2nc(N3CCOCC3)c3cnn(C4CCN(C(=O)OC)CC4)c3n2)cc1 [Compound 739, methyl 4-(6-{4-[(methoxycarbonyl)amino]phenyl}-4-morpholin-4-yl-1H-pyrazolo[3,4-d]pyrimidin-1-yl)piperidine-1-carboxylate] | 400 | 1750 |  |  |  |
| COC(=O)Nc1ccc(-c2nc(N3CCOCC3)c3cnn(C4CCN(C(=O)OC)CC4)c3n2)cc1 [Compound 740, methyl 4-(6-{4-[(methoxycarbonyl)amino]phenyl}-4-morpholin-4-yl-1H-pyrazolo[3,4-d]pyrimidin-1-yl)piperidine-1-carboxylate] | 310 | 1300 |  |  |  |
| O=C(Nc1ccc(-c2nc(N3CCOCC3)c3cnn(C4CCN(C(=O)c5ccccc5)CC4)c3n2)cc1)Nc1cccnc1 [Example 379, 1-{4-[1-(1-benzoylpiperidin-4-yl)-4-morpholin-4-yl-1H-pyrazolo[3,4-d]pyrimidin-6-yl]phenyl}-3-pyridin-3-ylurea] | 27 |  |  |  | 35 |
| O=C(NCCF)Nc1ccc(-c2nc(N3CCOCC3)c3cnn(C4CCN(C(=O)c5ccccc5)CC4)c3n2)cc1 [Example 380, 1-{4-[1-(1-benzoylpiperidin-4-yl)-4-morpholin-4-yl-1H-pyrazolo[3,4-d]pyrimidin-6-yl]phenyl}-3-(2-fluoroethyl)urea] | 27 |  |  |  | 454 |
| CCNC(=O)Nc1ccc(-c2nc(N3CCOCC3)c3cnn(C4CCN(C(=O)c5ccccc5)CC4)c3n2)cc1 [Example 381, 1-{4-[1-(1-benzoylpiperidin-4-yl)-4-morpholin-4-yl-1H-pyrazolo[3,4-d]pyrimidin-6-yl]phenyl}-3-ethylurea] | 27 |  |  |  | 355 |
| O=C(Nc1ccc(-c2nc(N3CCOCC3)c3cnn(C4CCN(C(=O)c5cccnc5)CC4)c3n2)cc1)Nc1cccs1 [Example 413, 1-(4-{4-morpholin-4-yl-1-[1-(pyridin-3-ylcarbonyl)piperidin-4-yl]-1H-pyrazolo[3,4-d]pyrimidin-6-yl}phenyl)-3-(2-thienyl)urea] | 35 |  |  |  | 15 |
